# Reference: paper PMC12096669, “Structural isomerisation affects the antitubercular activity of adamantyl-isoxyl adducts” (Journal of Enzyme Inhibition and Medicinal Chemistry, 2025)
# Where two headings read alike, the source gives them in different places.
# Experiments:
# S. pyogenes NCTC 8198 = assay: Non-mycobacterial REMA assay; assay type: cell-based; details: Streptococcus pyogenes, NCTC8198, read-out: Minimum inhibitory concentration 95%
# [1] = tested on: HepG2 human liver cancer cell line; assay: MTS cytotoxicity assay, liver cells; assay type: cell-based; details: 96 h, read-out: MTS percentage survival @ 100 µM
# P. aeruginosa DSM 19880 = assay: Non-mycobacterial REMA assay; assay type: cell-based; details: Pseudomonas aeruginosa, DSM19880, read-out: Minimum inhibitory concentration 95%
# S. agalactiae NCTC 8181 = assay: Non-mycobacterial REMA assay; assay type: cell-based; details: Streptococcus agalactiae, NCTC8181, read-out: Minimum inhibitory concentration 95%
# B. cereus NCTC 7464 = assay: Non-mycobacterial REMA assay; assay type: cell-based; details: Bacillus cereus, NCTC7464, read-out: Minimum inhibitory concentration 95%
# E. cloacae NCTC 10005 = assay: Non-mycobacterial REMA assay; assay type: cell-based; details: Enterobacter cloacae, NCTC10005, read-out: Minimum inhibitory concentration 95%
# A. baumannii NCTC 12156 = assay: Non-mycobacterial REMA assay; assay type: cell-based; details: Acinetobacter baumannii, NCTC12156, read-out: Minimum inhibitory concentration 95%
# K. pneumoniae NCTC 9633 = assay: Non-mycobacterial REMA assay; assay type: cell-based; details: Klebsiella pneumoniae, NCTC9633, read-out: Minimum inhibitory concentration 95%
# Mtb mc^27902 pMV261 [2] = assay: microbe, parasite or virus in culture; assay type: cell-based; details: Mycobacterium tuberculosis
# [3] = tested on: AC10 hybrid adult ventricular cardiomyocytes; assay: MTS cytotoxicity assay, cardiomyocytes; assay type: cell-based; details: Homo sapiens, AC10 cardiac, 96 h, read-out: MTS percentage survival @ 100 µM
# [4] = tested on: RAW264.7 murine macrophage cells; assay: cells; assay type: cell-based; details: for viability at 100 µM / IC50: Mus musculus; for viability at 100 µM: RAW264.7, 96 h, read-out: MTS percentage survival @ 100 µM; for IC50: RAW264.7 macrophages, 0 to 100 µM, read-out: IC50 (cell viability, MTS assay); for selectivity index (SI): from RAW264.7 IC50 and Mtb MIC95
# S. aureus NCTC 2981 = assay: Non-mycobacterial REMA assay; assay type: cell-based; details: Staphylococcus aureus, NCTC2981, read-out: Minimum inhibitory concentration 95%
# E. faecium NCTC 7171 = assay: Non-mycobacterial REMA assay; assay type: cell-based; details: Enterococcus faecium, NCTC7171, read-out: Minimum inhibitory concentration 95%
# S. enterica NCTC 6754 = assay: Non-mycobacterial REMA assay; assay type: cell-based; details: Salmonella enterica, NCTC6754, read-out: Minimum inhibitory concentration 95%
# Method: (§1) Bacterial minimum inhibition concentrations (MIC) were determined using the Resazurin Microtiter Assay (REMA) method according to Palomino et al.[28] Stock solutions of the tested compounds were prepared in sterile dimethyl sulfoxide (DMSO), then diluted in 7H9OPALPen^1Cyc^10(Kan^25) to obtain a final drug concentration range of 32–0.032 μg/mL. A suspension of the test Mycobacterium was cultured in 7H9OPALPen^1Cyc^10(Kan^25) containing 0.05% v/v Tween^80 for one week at 37 °C, 5% CO2. The bacterial suspension was adjusted to 0.5 McFarland and diluted in 7H9OPALPen^1Cyc^10(Kan^25) 1:25. 100 μL of the inoculum was added to each well of a 96-well microplate together with 100 μL of the compound titration. The plate was incubated at 37 °C, 5% CO2. After 5 days, 10.5 μL 0.1% (w/v) sterile resazurin (solubilised in sterile PBS containing 0.02% v/v Tween^80) was added. Reduced resazurin was detected using fluorescence (Ex/Em 530/590 nm) in a FLUOstar Optima, BMG Labtech. All titre measurements were plotted in SigmaPlot™ and 4-parameter logistic (4PL) model regressions conducted. The relative MIC95 of each curve was calculated and averaged (Table 1). Testing was performed in duplicate with two independent biological repeats. […] Though, for these cultures, dilutions were performed at 1:125 prior to inoculation of the plate and incubation for 4 h (Supplementary Table 3). Known antitubercular agents used in this study were rifampicin (RIF), isoniazid (INH), ISO, EMB, ethionamide (ETH), linezolid (LZD), delamanid (DEL) and moxifloxacin (MOX).
# E. coli K12 = assay: Non-mycobacterial REMA assay; assay type: cell-based; details: Escherichia coli, read-out: Minimum inhibitory concentration 95%
# Method: as §1
# E. faecalis NCTC 775 = assay: Non-mycobacterial REMA assay; assay type: cell-based; details: Enterococcus faecalis, NCTC775, read-out: Minimum inhibitory concentration 95%
# Mtb mc^27902 pMV261 [5] = assay type: cell-based, Mycobacterium tuberculosis; details: in the presence of glucose; 37 °C, 30 min
# Mtb mc^27902 pMV261 [6] = assay type: cell-based, Mycobacterium tuberculosis; details: for TMM levels (TLC): at the highest concentrations
# M. bovis BCG = details: library of 52,000 compounds; cited from earlier work
# Mtb mc^27902 pMV261 [7] = assay: Synergy (two-drug checkerboard style) assay; assay type: cell-based, Mycobacterium tuberculosis; details: in combination with RIF
# [8] = mc^27902 pMV261, REMA, read-out: Mtb MIC95
# [9] = values used for the SI, in brackets, […], read-out: MIC95
# [10] = values used for the SI, […], read-out: MIC95
# [11] = RAW264.7 macrophage, 100 µM, 96 h
Structure (SMILES),MIC (S. pyogenes NCTC 8198) [µg/mL],viability at 100 µM [1] [%],MIC (P. aeruginosa DSM 19880) [µg/mL],MIC (S. agalactiae NCTC 8181) [µg/mL],MIC (B. cereus NCTC 7464) [µg/mL],MIC (E. cloacae NCTC 10005) [µg/mL],MIC (A. baumannii NCTC 12156) [µg/mL],MIC (K. pneumoniae NCTC 9633) [µg/mL],MIC (Mtb mc^27902 pMV261 [2]; [8]) [µg/mL],viability at 100 µM [3] [%],"viability at 100 µM [4, 11] [%]",IC50 [4] [µM],MIC (S. aureus NCTC 2981) [µg/mL],MIC (E. faecium NCTC 7171) [µg/mL],MIC (S. enterica NCTC 6754) [µg/mL],MIC (E. coli K12) [µg/mL],MIC (E. faecalis NCTC 775) [µg/mL],also measured
"CC(C)=CCC/C(C)=C/CNCCNC1C2CC3CC(C2)CC1C3 (stereo not drawn) [SQ109, N-Adamantan-2-yl-N’-((E)-3,7-dimethylocta-2,6-dienyl)ethane-1,2-diamine]",> 32,15.1 ± 4.1,> 32,> 32,> 32,16.8,20.7,> 32,0.33,40.2 ± 2.3,61.1 ± 2.9,> 100,16.9,20.1,> 32,17.4,21.1,MIC (Mtb mc^27902 pMV261 [2]; [9]): 0.12 µg/mL; MIC (Mtb mc^27902 pMV261 [2]; [10]): 0.36 µM; selectivity index (SI) [4]: > 100
"CC(C)CCOc1ccc(NC(=S)NC23CC4CC(CC(C4)C2)C3)cc1 [Ad-1-ISO, 1-((3s,5s,7s)-adamantan-1-yl)-3–(4-(isopentyloxy)phenyl)thiourea]",> 32,16.1 ± 7.2,> 32,> 32,> 32,> 32,> 32,> 32,1.08,55 ± 13.2,73.8 ± 7.5,> 100,> 32,> 32,> 32,> 32,> 32,"efflux of EtBr (Mtb mc^27902 pMV261 [5]): significantly increased the overall efflux of EtBr; selectivity index (SI) [4]: > 100; effect on mycolic acid biosynthesis (FAMEs/MAMEs, TLC/autoradiography) (Mtb mc^27902 pMV261 [6]): Depletion of mycolates into the cell wall was only observed at the highest concentrations tested; TMM levels (TLC) (Mtb mc^27902 pMV261 [6]): slight increase in the TMM levels"
"CC[C@@H](CO)NCCN[C@@H](CC)CO [EMB, Ethambutol]",> 32,95.2 ± 6,> 32,> 32,> 32,> 32,> 32,> 32,1.99,93.7 ± 2.7,88.5 ± 8.6,,> 32,> 32,> 32,> 32,> 32,
O=C(N/N=C/c1cccc(F)c1)C12CC3CC(CC(C3)C1)C2 [adamantyl-hydrazone],,,,,,,,,,,,,,,,,,MIC (M. bovis BCG): < 2 µg/mL
"CC(C)CCOc1ccc(NC(=S)NC2C3CC4CC(C3)CC2C4)cc1 (stereo not drawn) [Ad-2-ISO, 1-((1r,3r,5r,7r)-adamantan-2-yl)-3–(4-(isopentyloxy)phenyl)thiourea]",> 32,13.4 ± 5.1,> 32,> 32,> 32,> 32,> 32,> 32,2.88,51.1 ± 17.7,22.5 ± 0.9,95.3,> 32,> 32,> 32,> 32,> 32,"efflux of EtBr (Mtb mc^27902 pMV261 [5]): significantly increased the overall efflux of EtBr; TDM and glucose monomycolate levels (TLC) (Mtb mc^27902 pMV261 [6]): decrease in TDM and glucose monomycolate; effect on mycolic acid biosynthesis (FAMEs/MAMEs, TLC/autoradiography) (Mtb mc^27902 pMV261 [6]): more significant reduction in radiolabel incorporation; TMM levels (TLC) (Mtb mc^27902 pMV261 [6]): slight increase in the TMM levels; FICI (Mtb mc^27902 pMV261 [7]): 0.52"
"CO[C@H]1/C=C/O[C@@]2(C)Oc3c(C)c(O)c4c(O)c(c(/C=N/N5CCN(C)CC5)c(O)c4c3C2=O)NC(=O)/C(C)=C\C=C\[C@H](C)[C@H](O)[C@@H](C)[C@@H](O)[C@@H](C)[C@H](OC(C)=O)[C@@H]1C [RIF, rifampicin]",6.16,47.7 ± 3.2,> 12.8,0.08,0.045,> 12.8,1.36,> 12.8,0.04,40.7 ± 6.6,66.3 ± 5,,< 0.0125,1.73,12.8,3.03,> 12.8,
"NNC(=O)c1ccncc1 [INH, isoniazid]",> 32,97 ± 3.8,> 32,> 32,> 32,> 32,> 32,> 32,0.04,92.6 ± 1.2,96.3 ± 2,,> 32,> 32,> 32,> 32,> 32,
"CCc1cc(C(N)=S)ccn1 [ETH, ethionamide]",> 32,92.7 ± 7,> 32,> 32,> 32,> 32,> 32,> 32,,90.5 ± 4.7,,,> 32,> 32,> 32,> 32,> 32,MIC (Mtb mc^27902 pMV261 [2]; read-out: Mtb MIC95): 1.05 µg/mL; viability at 100 µM [4]: 100 ± 5.6%
"CC(=O)NC[C@H]1CN(c2ccc(N3CCOCC3)c(F)c2)C(=O)O1 [LZD, linezolid]",0.543,105 ± 5.1,> 32,2.1,1.75,> 32,31.1,> 32,0.91,103 ± 1.8,38.3,16.2,23.7,0.158,> 32,> 32,0.921,MIC (Mtb mc^27902 pMV261 [2]; [9]): 0.55 µg/mL; MIC (Mtb mc^27902 pMV261 [2]; [10]): 1.63 µM
